Measurements as given in US20230167127A1, “COMPOUNDS AND THEIR USE IN THE TREATMENT OF BACTERIAL INFECTION” (Hoffmann-La Roche Inc., priority 2020, published 2023).

The compounds below were run on Escherichia coli ATCC 25922 (assay: 50% growth inhibitory concentration (IC50) determination, Iso-Sensitest broth dilution). Conditions: Escherichia coli, ATCC25922, 16 h, strain Escherichia coli ATCC 25922; 10-point broth dilution, optical density at 600 nm over 16 h; read-out: Escherichia coli growth inhibition IC50.
Format: cell-based
Summary of the method: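 10-point twofold Iso-Sensitest broth dilution (e.g. 50 to 0.097 μM final) with DMSO stocks, incubated at 35±2° C. Growth followed by OD 600 nm every 20 min over 16 h; IC50 derived from growth inhibition during logarithmic phase.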

`Cn1nnnc1COc1cc(C#N)c2c(c1)CC(CNCCC1CN(c3cnc4c(n3)NC(=O)CO4)C(=O)O1)C2` (stereo not shown) [Example 391, 6-[(1-methyltetrazol-5-yl)methoxy]-2-[[2-[2-oxo-3-(3-oxo-4H-pyrazino[2,3-b][1,4]oxazin-6-yl)-1,3-oxazolidin-5-yl]ethylamino]methyl]-2,3-dihydro-1H-indene-4-carbonitrile] and `O=C1COc2ncc(N3CC(CCNCC4Cc5cc(OCCn6ncnn6)cc(F)c5C4)OC3=O)nc2N1` (stereo not shown) [Example 348, 6-[5-[2-[[4-fluoro-6-[2-(tetrazol-2-yl)ethoxy]-2,3-dihydro-1H-inden-2-yl]methylamino]ethyl]-2-oxo-1,3-oxazolidin-3-yl]-4H-pyrazino[2,3-b][1,4]oxazin-3-one; formic acid] are within 1.5-fold of each other in IC50: 258 nM for the first, 317 nM for the second.

`Cc1ncc(Cl)c2c1CC(CNCCC1CN(c3cnc4c(n3)NC(=O)CO4)C(=O)O1)C2` (stereo not shown) [Example 60, 6-[5-[2-[(4-chloro-1-methyl-6,7-dihydro-5H-cyclopenta[c]pyridin-6-yl)methylamino]ethyl]-2-oxo-1,3-oxazolidin-3-yl]-4H-pyrazino[2,3-b][1,4]oxazin-3-one; formic acid] and `Cc1ncc(F)c2c1C[C@@H](CNCC[C@@H]1CN(c3cnc4c(n3)NC(=O)CO4)C(=O)O1)C2` [Example 427, 6-[(5R)-5-[2-[[(6R)-4-Fluoro-1-methyl-6,7-dihydro-5H-cyclopenta[c]pyridin-6-yl]methylamino]ethyl]-2-oxo-1,3-oxazolidin-3-yl]-4H-pyrazino[2,3-b][1,4]oxazin-3-one] cannot be ordered by IC50: < 97.7 nM for the first, < 97.7 nM for the second.

Going from `CNC(=O)COc1ccc2c(c1C#N)CC(CNCCC1CN(c3cnc4c(n3)NC(=O)CO4)C(=O)O1)C2` (stereo not shown) [Example 286, 2-[[4-cyano-2-[[2-[2-oxo-3-(3-oxo-4H-pyrazino[2,3-b][1,4]oxazin-6-yl)-1,3-oxazolidin-5-yl]ethylamino]methyl]-2,3-dihydro-1H-inden-5-yl]oxy]-N-methylacetamide] to `N#Cc1c(OCC2CCCN2)ccc2c1CC(CNCCC1CN(c3ccc4c(n3)NC(=O)CO4)C(=O)O1)C2` (stereo not shown) [Example 141, 2-[[2-[2-oxo-3-(3-oxo-4H-pyrido[3,2-b][1,4]oxazin-6-yl)-1,3-oxazolidin-5-yl]ethylamino]methyl]-5-(pyrrolidin-2-ylmethoxy)-2,3-dihydro-1H-indene-4-carbonitrile; formic acid], the IC50 rises from < 97.7 nM to 186 nM.

Going from `Cc1nccc2c1CC(CN1CCC3(CC1)CN(c1cnc4c(n1)NC(=O)CO4)C(=O)O3)C2` (stereo not shown) [Example 374, 6-[8-[(1-methyl-6,7-dihydro-5H-cyclopenta[c]pyridin-6-yl)methyl]-2-oxo-1-oxa-3,8-diazaspiro[4.5]decan-3-yl]-4H-pyrazino[2,3-b][1,4]oxazin-3-one] to `N[C@@H]1c2cccc(Cl)c2C[C@H]1CN1CCC2(CC1)CN(c1cnc3c(n1)NC(=O)CO3)C(=O)O2` (racemic) [Example 259, 6-[2-Oxo-8-[[rac-1,2-trans-1-amino-4-chloro-2,3-dihydro-1H-inden-2-yl]methyl]-1-oxa-3,8-diazaspiro[4.5]decan-3-yl]-4H-pyrazino[2,3-b][1,4]oxazin-3-one; formic acid], the IC50 falls from 207 nM to < 97.7 nM.

Compared with `N#Cc1cccc2c1CC(CN[C@H]1C[C@@H](C3CN(c4ccc5c(n4)NC(=O)CO5)C(=O)O3)C1)C2` (stereo partly drawn) [Example 96, 2-[[[cis-3-[2-oxo-3-(3-oxo-4H-pyrido[3,2-b][1,4]oxazin-6-yl)-1,3-oxazolidin-5-yl]cyclobutyl]amino]methyl]-2,3-dihydro-1H-indene-4-carbonitrile; formic acid], `O=C1COc2ccc(N3CC([C@H]4C[C@@H](NC5Cc6cccc(Cl)c6C5)C4)OC3=O)nc2N1` (stereo partly drawn) [Example 16, 6-[5-[cis-3-[(4-chloro-2,3-dihydro-1H-inden-2-yl)amino]cyclobutyl]-2-oxo-1,3-oxazolidin-3-yl]-4H-pyrido[3,2-b][1,4]oxazin-3-one; formic acid] is 4.5-fold higher in IC50: 187 nM for the first, 840 nM for the second. The first is the more potent here.

Compared with `Cc1ncc(F)c2c1CC(CNCCc1nn(-c3ccc4c(n3)NC(=O)CO4)c(=O)o1)C2` (stereo not shown) [Example 68, 6-[5-[2-[(4-fluoro-1-methyl-6,7-dihydro-5H-cyclopenta[c]pyridin-6-yl)methylamino]ethyl]-2-oxo-1,3,4-oxadiazol-3-yl]-4H-pyrido[3,2-b][1,4]oxazin-3-one], `COc1ncc(F)c2c1CC(CNCCC1CN(c3ccc4c(n3)NC(=O)CO4)C(=O)O1)C2` (stereo not shown) [Example 70, 6-[5-[2-[(4-fluoro-1-methoxy-6,7-dihydro-5H-cyclopenta[c]pyridin-6-yl)methylamino]ethyl]-2-oxo-oxazolidin-3-yl]-4H-pyrido[3,2-b][1,4]oxazin-3-one] is lower in IC50: 175 nM for the first, ≤ 97.7 nM for the second. The second is the more potent here.

First: NC1c2cccc(Cl)c2CC1CNCCC1CN(c2cnc3c(c2)NC(=O)CO3)C(=O)O1 (racemic) [Example 135, 7-[2-oxo-5-[2-[[rac-1,2-trans-1-amino-4-chloro-2,3-dihydro-1H-inden-2-yl]methylamino]ethyl]-1,3-oxazolidin-3-yl]-1H-pyrido[2,3-b][1,4]oxazin-2-one; formic acid]
Second: O=C1COc2ncc(N3CC(CCNCC4Cc5ncc(F)c(Cl)c5C4)OC3=O)nc2N1 (stereo not shown) [Example 319, 6-[5-[2-[(4-chloro-3-fluoro-6,7-dihydro-5H-cyclopenta[b]pyridin-6-yl)methylamino]ethyl]-2-oxo-1,3-oxazolidin-3-yl]-4H-pyrazino[2,3-b][1,4]oxazin-3-one; formic acid]
The IC50 of the first is higher: 5800 nM for the first, < 97.7 nM for the second. The second is the more potent here.

Going from `CN(CCOc1cc(F)c2c(c1)CC(CNCCC1CN(c3cnc4c(n3)NC(=O)CO4)C(=O)O1)C2)S(C)(=O)=O` (stereo not shown) [Example 325, N-[2-[[7-fluoro-2-[[2-[2-oxo-3-(3-oxo-4H-pyrazino[2,3-b][1,4]oxazin-6-yl)-1,3-oxazolidin-5-yl]ethylamino]methyl]-2,3-dihydro-1H-inden-5-yl]oxy]ethyl]-N-methylmethanesulfonamide] to `Cc1nc(Cl)c2c(c1F)CC(CNCCC1CN(c3ccc4c(n3)NC(=O)CO4)C(=O)O1)C2` (stereo not shown) [Example 256, 6-[5-[2-[(1-Chloro-4-fluoro-3-methyl-6,7-dihydro-5H-cyclopenta[c]pyridin-6-yl)methylamino]ethyl]-2-oxo-1,3-oxazolidin-3-yl]-4H-pyrido[3,2-b][1,4]oxazin-3-one], the IC50 falls from 281 nM to < 97.7 nM.

`Cc1cnc(-c2nc(OCC3(N)CC3)c(C)c3c2CC(CNCCC2CN(c4ccc5c(n4)NC(=O)CO5)C(=O)O2)C3)s1` (stereo not shown) [Example 216, 6-[5-[2-[[3-[(1-aminocyclopropyl)methoxy]-4-methyl-1-(5-methyl-1,3-thiazol-2-yl)-6,7-dihydro-5H-cyclopenta[c]pyridin-6-yl]methylamino]ethyl]-2-oxo-1,3-oxazolidin-3-yl]-4H-pyrido[3,2-b][1,4]oxazin-3-one] gave an IC50 of 211 nM.

Same assay, conditions: strain Escherichia coli ATCC 25922; 10-point broth dilution, optical density at 600 nm over 16 h; read-out: Escherichia coli growth inhibition IC50

First: N#Cc1cccc2c1CC(NC1CCC3(CN(c4ccc5c(n4)NC(=O)CO5)C(=O)O3)C(N)C1)C2 (racemic) [Example 241, 2-[[rac-5,6-trans-5,8-cis-6-Amino-2-oxo-3-(3-oxo-4H-pyrido[3,2-b][1,4]oxazin-6-yl)-1-oxa-3-azaspiro[4.5]decan-8-yl]amino]-2,3-dihydro-1H-indene-4-carbonitrile; formic acid]
Second: N#Cc1cccc2c1CC(CNCCC1OC(=O)N(c3ccc4c(n3)NC(=O)CO4)C1CN)C2 (racemic) [Example 149, 2-[[2-[rac-4,5-trans-4-(aminomethyl)-2-oxo-3-(3-oxo-4H-pyrido[3,2-b][1,4]oxazin-6-yl)-1,3-oxazolidin-5-yl]ethylamino]methyl]-2,3-dihydro-1H-indene-4-carbonitrile; formic acid]
The IC50 of the first is 1.8-fold lower: 509 nM for the first, 904 nM for the second.
